Measured values published in patent US10082496B2, “Targeting emopamil binding protein (EBP) with small molecules that induce an abnormal feedback response by lowering endogenous cholesterol biosynthesis” (Board of Regents of the University of Texas System, priority 2014, dated 2018).

Experiments:
DLD-1 = assay: In vitro APC inhibition assay (MTT), DLD-1; format: cell-based; details: Homo sapiens, DLD-1, DLD-1 (truncated APC)
Description: (§1) The small molecule anti-cancer compounds were evaluated for the ability to inhibit the activity of APC in an in vitro assay.
(§2) Reagents required for the assay are: (3-[4,5-Dimethylthiazol-2-yl]-2,5-diphenyltetrazolium bromide; Thiazolyl blue; RPI corp., cat# M92050); RPMI-1640 or Medium of Choice (i.e. DMEM) without phenol red; 1M Hepes; 100 mM NaPyruvate; 1000× Gentamicin (50 mg/ml); 100× Penicillin/Streptomycin/Fungizone; 1×PBS; Triton X-100; 1N HCl and Isopropanol. To make the MTT solution (10×), MTT powder was dissolved into complete RPMI (or DMEM solution) to a final concentration of 5 mg/mL and was sterilized by filtration with a 0.2 μm filter. The MTT solubilization solution contained 10% Triton X-100, 0.1N and 80% isopropanol. MTT solution was diluted to 1× with complete medium at 12 mL per plate. The culture dishes (96 wells) were removed from the incubator and the media was discarded. […] The cells were removed from the incubator and the MTT solution was discarded.
(§3) Percent inhibition was determined relative to control reactions without inhibitor, and half maximal inhibitory concentration (IC50) values were determined using a standard four parameter fit to the inhibition data.

HCT-116 = assay: In vitro APC inhibition assay (MTT), HCT-116; format: cell-based; details: Homo sapiens, HCT-116, read-out: IC50 (nM) in HCT-116
Description: as §1
Reagents required for the assay are: (3-[4,5-Dimethylthiazol-2-yl]-2,5-diphenyltetrazolium bromide; Thiazolyl blue; RPI corp., cat# M92050); RPMI-1640 or Medium of Choice (i.e. DMEM) without phenol red; 1M Hepes; 100 mM NaPyruvate; 1000× Gentamicin (50 mg/ml); 100× Penicillin/Streptomycin/Fungizone; 1×PBS; Triton X-100; 1N HCl and Isopropanol. To make the MTT solution (10×), MTT powder was dissolved into complete RPMI (or DMEM solution) to a final concentration of 5 mg/mL and was sterilized by filtration with a 0.2 μm filter. The MTT solubilization solution contained 10% Triton X-100, 0.1N and 80% isopropanol. MTT solution was diluted to 1× with complete medium at 12 mL per plate. The culture dishes (96 wells) were removed from the incubator and the media was discarded. The plates were washed three times with 1×PBS. 100 μl of 1×MTT solution was added to each well and the plates were incubated in a tissue culture incubator for 2-4 hours, depending on the cell line. The cells were removed from the incubator and the MTT solution was discarded. 200 μl of 1×MTT solubilization solution was added to each well using a multi-channel pipetor and the cells were placed on an orbital shaker for 10 minutes. The results were read on a microtiter plate reader (absorbance=570 nm, reference=700 nm) and data was exported.
as §3

HT-29 = assay: In vitro APC inhibition assay (MTT), HT-29; format: cell-based; details: Homo sapiens, HT-29, HT-29 (truncated APC)
Description: as §1, §2, §3

DLD1 cells = assay: Dose response studies in CRC line DLD1 (truncated APC); format: cell-based, human; details: varying doses
Description: These 14 compounds then were obtained commercially and their IC50 determined by performing dose response studies with half log dilution series at 12 concentration points in two authentic CRC lines: HCT116 (wt APC) and DLD1 (truncated APC).
DLD-1 cells normally are cultured in 10% serum medium, and they are rapidly shifted to 0.2% serum medium for dose response studies.

S9 half-life = format: in vitro ADME; details: S9 fraction; read-out: S9 T1/2

Row | IC50 (DLD-1) | IC50 (HCT-116) | IC50 (HT-29) | SMILES | also measured
1 |  | > 10000 nM |  | C#CCC1CCN(C2CCN(S(=O)(=O)c3ccc(Br)cc3)CC2)CC1 | 
2 |  | > 10000 nM |  | CC1CCN(C2CCN(S(=O)(=O)c3ccc(OC(F)F)cc3)CC2)CC1 | 
3 | 253 nM |  |  | CC1CCN(C2CCN(S(=O)(=O)c3ccc(Oc4ccccc4)cc3)CC2)CC1 | 
4 |  | > 10000 nM | 5.6 nM | CC1CCN(C2CCN(S(=O)(=O)c3ccc(Cl)cc3)CC2)CC1 | 
5 |  | > 10000 nM | 14 nM | Cc1ccc(S(=O)(=O)N2CCC(N3CCC(C)CC3)CC2)cc1 | 
6 |  | > 10000 nM | 2200 nM | CC1CCN(C2CCN(S(=O)(=O)c3cccnc3)CC2)CC1 | 
7 |  | > 10000 nM | 19 nM | COc1ccccc1-c1ccc(S(=O)(=O)N2CCC(N3CCC(C)CC3)CC2)cc1 | 
8 | 29 nM |  |  | CC1CCN(C2CCN(S(=O)(=O)c3ccc(OC(F)(F)F)c(Br)c3)CC2)CC1 | 
9 |  | > 10000 nM | 112 nM | CC1CCN(C2CCN(S(=O)(=O)c3ccc(-c4ccc(Cl)cc4)cc3)CC2)CC1 | 
10 |  | > 10000 nM | 288 nM | COc1ccc(-c2ccc(S(=O)(=O)N3CCC(N4CCC(C)CC4)CC3)cc2)cc1 | 
11 | 56 nM |  |  | CC1CCN(C2CCN(S(=O)(=O)c3cccc(OC(F)(F)F)c3)CC2)CC1 | 
12 |  | > 10000 nM | 234 nM | CC1CCN(C2CCN(S(=O)(=O)c3ccc(-c4ccccc4)cc3)CC2)CC1 | 
13 |  | > 10000 nM |  | CC1CCN(C2CCN(S(=O)(=O)c3ccc(Cl)c(Cl)c3)CC2)CC1 | 
14 |  | > 10000 nM |  | COc1ccc(Br)cc1S(=O)(=O)N1CCC(N2CCC(C)CC2)CC1 | 

Second part, the compound before the results:

Row | SMILES | IC50 (DLD-1) | IC50 (HCT-116) | IC50 (HT-29) | also measured
15 | CC1CCN(C2CCN(S(=O)(=O)c3ccccc3OC(F)(F)F)CC2)CC1 | 421 nM |  |  | 
16 | C#CCOCCC1CCN(C2CCN(S(=O)(=O)c3ccccc3)CC2)CC1 |  | > 10000 nM | 35 nM | 
17 | COc1ccc2c(c1)CCC(c1ccccc1)=C2c1ccc(OCCN2CCCC2)cc1 [Nafoxidine] |  |  |  | sensitivity of DLD-1 vs HCT-116 cells to EBP inhibitors (FIG. 10) (DLD1 cells): selectively sensitive
18 | O=S(=O)(c1cccc2ccccc12)N1CCC(N2CCCC2)CC1 | 3900 nM |  |  | 
19 | C#CCC1CCN(C2CCN(S(=O)(=O)c3cccc(N=[N+]=[N-])c3)CC2)CC1 | 1900 nM |  |  | 
20 | O=S(=O)(c1ccc(OC(F)(F)F)cc1)N1CCC(N2CCOCC2)CC1 | 501 nM |  |  | 
21 | CCCCC#Cc1cc(S(=O)(=O)N2CCC(N3CCC(C)CC3)CC2)ccc1OC(F)(F)F | 147 nM |  |  | 
22 | C#CCC1CCN(C2CCN(S(=O)(=O)c3ccc(C(=O)c4ccccc4)cc3)CC2)CC1 | 4.8 nM | > 10000 nM | 5.2 nM | 
23 | CC1CCN(C2CCN(Cc3ccc(OC(F)(F)F)cc3)CC2)CC1 | 19 nM |  |  | 
24 | C#CCC1CCN(C2CCN(S(=O)(=O)c3ccc(N=[N+]=[N-])cc3)CC2)CC1 | 235 nM |  |  | 
25 | Cc1cc(C)c(S(=O)(=O)N2CCC(N3CCC(C)OC3)CC2)c(C)c1 (stereo not shown) |  | > 10000 nM | 61 nM | 
26 | C[C@H]1CC[N@+](C)(C2CCN(S(=O)(=O)c3ccccc3)CC2)CC1 | > 10000 nM |  |  | 
27 | CC1CCCN(C2CCN(S(=O)(=O)c3ccc([N+](=O)[O-])cc3)CC2)C1 (stereo not shown) | 366 nM |  |  | 
28 | CC1CCCN(C2CCN(S(=O)(=O)c3ccc(C(F)(F)F)cc3)CC2)C1 (stereo not shown) | 29 nM |  |  | 
29 | Cc1cc(C)c(S(=O)(=O)N2CCC(N3CCC(c4ccccc4)CC3)CC2)c(C)c1 |  | > 10000 nM |  | 
30 | C#CCC1CCN(C2CCN(S(=O)(=O)c3ccccc3)CC2)CC1 | 18 nM | > 10000 nM | 4 nM | half-life (S9 half-life): 25.2 min
31 | C#CCC1CCCCN1C1CCN(S(=O)(=O)c2ccccc2)CC1 (stereo not shown) |  | > 10000 nM | 1100 nM | 
32 | CC1CCCN(C2CCN(S(=O)(=O)c3ccc(OC(F)(F)F)cc3)CC2)C1 (stereo not shown) | 31 nM |  |  | 
33 | CC1CCCN(C2CCN(S(=O)(=O)c3ccc(Oc4ccccc4)cc3)CC2)C1 (stereo not shown) | 244 nM |  |  | 
34 | Cc1cc(C)c(S(=O)(=O)N2CCC(N3CCC(C(C)C)CC3)CC2)c(C)c1 |  | > 10000 nM |  | 
